# According to patent publication US20070249590A1, “Substituted indolo[2,3-a]pyrrolo[3,4-c]carbazole compounds useful in treating kinase disorders” (priority 2005, published 2007):
# Target: T1, JAK3 (JH1 and JH2 domain) (Homo sapiens, UniProt P52333)
# T1 sequence (P52333 521-1111 limits assumed): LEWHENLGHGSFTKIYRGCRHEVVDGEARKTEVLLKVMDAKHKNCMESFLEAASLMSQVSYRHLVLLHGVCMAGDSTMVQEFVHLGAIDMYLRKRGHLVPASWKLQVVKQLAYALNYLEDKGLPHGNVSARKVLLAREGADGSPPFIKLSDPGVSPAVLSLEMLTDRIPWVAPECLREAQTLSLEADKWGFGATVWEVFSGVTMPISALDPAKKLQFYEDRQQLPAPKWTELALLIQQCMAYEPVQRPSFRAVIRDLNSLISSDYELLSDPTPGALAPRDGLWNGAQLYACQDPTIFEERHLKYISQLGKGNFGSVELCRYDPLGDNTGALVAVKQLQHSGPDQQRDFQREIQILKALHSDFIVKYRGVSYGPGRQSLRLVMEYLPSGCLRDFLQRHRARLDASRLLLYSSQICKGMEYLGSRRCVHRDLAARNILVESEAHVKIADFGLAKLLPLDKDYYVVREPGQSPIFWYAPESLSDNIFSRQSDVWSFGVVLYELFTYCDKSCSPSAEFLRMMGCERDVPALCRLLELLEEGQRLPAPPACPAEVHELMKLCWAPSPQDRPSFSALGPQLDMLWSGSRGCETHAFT
# Assay: JAK3 Kinase Assay (ELISA of peptide substrate phosphorylation)
# Format: biochemical
# Settings: purified JAK3 enzyme, 10 μM ATP, biotinylated peptide substrate, 1 hour at room temperature
# How it was run: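 Sf21-baculovirus-expressed JAK3 (JH1+JH2), glutathione-bead purified, with biotinylated peptide substrate (in buffer containing 10 μM ATP) in HEPES pH 7.5/MgCl2/DTT, 1 h RT. Product was captured on Neutravidin, detected with HRP anti-phosphotyrosine (PY99)/TMB, OD 450/650 nm. Triplicate 16-point half-log series from 200 μM gave IC50; otherwise % inhibition at 1 μM.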
row,IC50 [µM],Structure (SMILES)
1,0.045,"O=C1NCc2c1c1c3ccccc3n3c1c1c2c2ccccc2n1CC(O)(COC(=O)N1CCC(N2CCCC2)CC1)C3 (stereo not drawn) [Cpd 150, 12,13-{2-hydroxy-2-[(4-pyrrolidin-1-yl-piperidin-1-yl)carbonyloxymethyl]-propan-1,3-yl}-6,7,12,13-tetrahydro-5-oxo-5H-indolo[2,3-a]pyrrolo[3,4-c]carbazole]"
2,0.434,"O=C(NCC1CCCCC1)OC1Cn2c3ccccc3c3c4c(c5c6ccccc6n(c5c32)CC1O)C(=O)NC4=O (stereo not drawn) [Cpd 81, 12,13-{2-[(cyclohexyl-methyl)carbamoyloxy]-3-hydroxy-butan-1,4-yl}-12,13-dihydro-5,7-dioxo-6H-indolo[2,3-a]pyrrolo[3,4-c]carbazole]"
3,0.129,"O=C1NC(=O)c2c1c1c3ccccc3n3c1c1c2c2ccccc2n1CC(OC(=O)N1CCN(c2ccccn2)CC1)CC3 (stereo not drawn) [Cpd 63, 12,13-{2-[(4-pyridin-2-yl-piperazin-1-yl)carbonyloxy]-butan-1,4-yl}-12,13-dihydro-5,7-dioxo-6H-indolo[2,3-a]pyrrolo[3,4-c]carbazole]"
4,0.053,"O=C1NCc2c1c1c3ccccc3n3c1c1c2c2ccccc2n1C[C@@H](O)[C@H](O)C3 [Cpd 19, 12,13-[(2R,3R)-dihydroxy-butan-1,4-yl]-6,7,12,13-tetrahydro-5-oxo-5H-indolo[2,3-a]pyrrolo[3,4-c]carbazole]"
5,0.012,"O=C1NCc2c1c1c3ccccc3n3c1c1c2c2ccccc2n1CCC(O)C(O)CC3 (stereo not drawn) [Cpd 21, 12,13-(3,4-dihydroxy-hexan-1,6-yl)-6,7,12,13-tetrahydro-5-oxo-5H-indolol[2,3-a]pyrrolo[3,4-c]carbazole]"
6,0.041,"O=C1NC(=O)c2c1c1c3ccccc3n3c1c1c2c2ccccc2n1CC(OC(=O)N1CCN(CCN2CCCC2=O)CC1)CC3 (stereo not drawn) [Cpd 57, 12,13-[2-({4-[2-(2-oxo-pyrrolidin-1-yl)ethyl]piperazin-1-yl}carbonyloxy)-butan-1,4-yl]-12,13-dihydro-5,7-dioxo-6H-indolo[2,3-a]pyrrolo[3,4-c]carbazole]"
7,0.04,"O=C1NC(=O)c2c1c1c3cc(-c4ccncc4)ccc3n3c1c1c2c2ccccc2n1CC(O)CC3 (stereo not drawn) [Cpd 33, 3-pyridin-4-yl-12,13-(2-hydroxy-butan-1,4-yl)-12,13-dihydro-5,7-dioxo-6H-indolo[2,3-a]pyrrolo[3,4-c]carbazole]"
8,3.13,"O=C1NCc2c1c1c3cc(Br)ccc3n3c1c1c2c2cc(CN4CCOCC4)ccc2n1CC(CO)C3 (stereo not drawn) [Cpd 208, 3-bromo-9-(morpholin-4-ylmethyl)-12,13-(2-hydroxymethyl-propan-1,3-yl)-6,7,12,13-tetrahydro-5-oxo-5H-indolo[2,3-a]pyrrolo[3,4-c]carbazole]"
9,0.068,"O=C1NCc2c1c1c3ccccc3n3c1c1c2c2ccccc2n1Cc1c[nH]cc1C3 [Cpd 30, 12,13-(1H-pyrrol[3,4-b]butan-1,4-yl)-6,7,12,13-tetrahydro-5-oxo-5H-indolo[2,3-a]pyrrolo[3,4-c]carbazole]"
10,0.086,"CN(C)CCNC(=O)OC1Cn2c3ccccc3c3c4c(c5c6ccccc6n(c5c32)CC1O)C(=O)NC4=O (stereo not drawn) [Cpd 77, 12,13-[2-[(2-dimethylamino-ethyl)carbamoyloxy]-3-hydroxy-butan-1,4-yl]-12,13-dihydro-5,7-dioxo-6H-indolo[2,3-a]pyrrolo[3,4-c]carbazole]"
11,> 0.2,"CN1CCN(CCCNC(=O)OC2CCCn3c4ccccc4c4c5c(c6c7ccccc7n(c6c43)C2)C(=O)NC5=O)CC1 (stereo not drawn) [Cpd 116, 12,13-(2-{[3-(4-methyl-piperazin-1-yl)prop-1-yl]carbamoyloxy}-pentan-1,5-yl)-12,13-dihydro-5,7-dioxo-6H-indolo[2,3-a]pyrrolo[3,4-c]carbazole]"
12,> 0.4,"O=C1NC(=O)c2c1c1c3ccccc3n3c1c1c2c2ccccc2n1CC(OC(=O)N1CCC(C2CCCCC2)CC1)CC3 (stereo not drawn) [Cpd 53, 12,13-{2-[(4-cyclohexyl-piperazin-1-yl)carbonyloxy]-butan-1,4-yl}-12,13-dihydro-5,7-dioxo-6H-indolo[2,3-a]pyrrolo[3,4-c]carbazole]"
13,0.007,"O=C1NCc2c1c1c3ccccc3n3c1c1c2c2ccccc2n1CC(O)C(O)C3 (stereo not drawn) [Cpd 14, 12,13-(2,3-dihydroxy-butan-1,4-yl)-6,7,12,13-tetrahydro-5-oxo-5H-indolo[2,3-a]pyrrolo[3,4-c]carbazole]"
14,0.017,"COc1ccc(CCNC(=O)OCC2(O)Cn3c4ccccc4c4c5c(c6c7ccccc7n(c6c43)C2)C(=O)NC5)cc1OC (stereo not drawn) [Cpd 153, 12,13-(2-hydroxy-2-{[2-(3,4-dimethoxy-phenyl)ethyl]carbamoyloxymethyl}-propan-1,3-yl)-6,7,12,13-tetrahydro-5-oxo-5H-indolo[2,3-a]pyrrolo[3,4-c]carbazole]"
15,0.084,"COCCNC(=O)OCC1Cn2c3ccccc3c3c4c(c5c6ccccc6n(c5c32)C1)C(=O)NC4 (stereo not drawn) [Cpd 154, 12,13-{2-[(2-methoxy-ethyl)carbamoyloxymethyl]propan-1,3-yl]-6,7,12,13-tetrahydro-5-oxo-5H-indolo[2,3-a]pyrrolo[3,4-c]carbazole]"
16,0.008,"COCCNC(=O)OC1CCn2c3ccccc3c3c4c(c5c6ccccc6n(c5c32)C1)C(=O)NC4=O (stereo not drawn) [Cpd 41, 12,13-{2-[(2-methoxy-ethyl)carbamoyloxy]-butan-1,4-yl}-12,13-dihydro-5,7-dioxo-6H-indolo[2,3-a]pyrrolo[3,4-c]carbazole]"
17,0.178,"CN(C)CCCNC(=O)OC1CCn2c3ccccc3c3c4c(c5c6ccccc6n(c5c32)CC1)C(=O)NC4 (stereo not drawn) [Cpd 186, 12,13-{3-[(3-dimethylamino-prop-1-yl)carbamoyloxy]-pentan-1,5-yl}-6,7,12,13-tetrahydro-5-oxo-5H-indolo[2,3-a]pyrrolo[3,4-c]carbazole]"
18,0.034,"O=C1NCc2c1c1c3cc(Br)ccc3n3c1c1c2c2ccccc2n1CC(O)C(O)C3 (stereo not drawn) [Cpd 188, 3-bromo-12,13-(2,3-dihydroxy-butan-1,4-yl)-6,7,12,13-tetrahydro-5-oxo-5H-indolo[2,3-a]pyrrolo[3,4-c]carbazole]"
19,0.078,"O=C1NC(=O)c2c1c1c3ccccc3n3c1c1c2c2ccccc2n1CC(O)(C(=O)N1CCN(c2ccccn2)CC1)C(O)C3 (stereo not drawn) [Cpd 131, 12,13-{2-[(4-pyridin-2-yl-piperazin-1-yl)carbonyl]-2,3-dihydroxy-butan-1,4-yl}-12,13-dihydro-5,7-dioxo-6H-indolo[2,3-a]pyrrolo[3,4-c]carbazole]"
20,0.039,"O=C1NCc2c1c1c3ccccc3n3c1c1c2c2ccccc2n1CC(O)(COC(=O)N1CCC(O)CC1)C3 (stereo not drawn) [Cpd 149, 12,13-{2-hydroxy-2-[(4-hydroxy-piperidin-1-yl)carbonyloxymethyl]-propan-1,3-yl}-6,7,12,13-tetrahydro-5-oxo-5H-indolo[2,3-a]pyrrolo[3,4-c]carbazole]"
21,0.031,"CN(C)CCNC(=O)OC1CCn2c3ccccc3c3c4c(c5c6ccccc6n(c5c32)C1)C(=O)NC4=O (stereo not drawn) [Cpd 50, 12,13-{2-[(2-dimethylamino-ethyl)carbamoyloxy]-butan-1,4-yl}-12,13-dihydro-5,7-dioxo-6H-indolo[2,3-a]pyrrolo[3,4-c]carbazole]"
22,~0.2,"Cc1ccc(CNC(=O)OCC2Cn3c4ccccc4c4c5c(c6c7ccccc7n(c6c43)C2)C(=O)NC5)o1 (stereo not drawn) [Cpd 156, 12,13-(2-{[(5-methyl-furan-2-yl)methyl]carbamoyloxymethyl}-propan-1,3-yl)-6,7,12,13-tetrahydro-5-oxo-5H-indolo[2,3-a]pyrrolo[3,4-c]carbazole]"
23,> 0.4,"CCCNC(=O)OC1CCn2c3ccccc3c3c4c(c5c6ccccc6n(c5c32)C1)C(=O)NC4=O (stereo not drawn) [Cpd 38, 12,13-[2-(prop-1-ylcarbamoyloxy)-butan-1,4-yl]-12,13-dihydro-5,7-dioxo-6H-indolo[2,3-a]pyrrolo[3,4-c]carbazole]"
24,0.081,"O=C1NC(=O)c2c1c1c3ccccc3n3c1c1c2c2ccccc2n1CC(OC(=O)N1CCN(c2ccccc2)CC1)C(O)C3 (stereo not drawn) [Cpd 102, 12,13-{2-[(4-phenyl-piperazin-1-yl)carbonyloxy]-3-hydroxy-butan-1,4-yl}-12,13-dihydro-5,7-dioxo-6H-indolo[2,3-a]pyrrolo[3,4-c]carbazole]"
25,0.653,"CN(C)CC(=O)OC1Cn2c3ccccc3c3c4c(c5c6ccccc6n(c5c32)CC1OC(=O)CN(C)C)C(=O)NC4 (stereo not drawn) [Cpd 15, 12,13-{2,3-bis-[(dimethylaminomethyl)carbonyloxy]-butan-1,4-yl}-6,7,12,13-tetrahydro-5-oxo-5H-indolo[2,3-a]pyrrolo[3,4-c]carbazole]"
26,0.309,"CN(C)CCSCc1ccc2c(c1)c1c3c(c4c5ccccc5n5c4c1n2CC(O)C(O)C5)CNC3=O (stereo not drawn) [Cpd 199, 3-[(2-dimethylamino-ethyl)thiomethyl]-12,13-(2,3-dihydroxy-butan-1,4-yl)-6,7,12,13-tetrahydro-5-oxo-5H-indolo[2,3-a]pyrrolo[3,4-c]carbazole]"
27,0.284,"CN1CCC(NCc2ccc3c(c2)c2c4c(c5c6ccccc6n6c5c2n3CC(O)C(O)C6)CNC4=O)CC1 (stereo not drawn) [Cpd 195, 3-[(1-methyl-piperidin-4-yl)aminomethyl]-12,13-(2,3-dihydroxy-butan-1,4-yl)-6,7,12,13-tetrahydro-5-oxo-5H-indolo[2,3-a]pyrrolo[3,4-c]carbazole]"
